Assay results published in patent US20230091047A1 (priority 2019, published 2023).
Like-named read-outs stand apart in the source and are kept apart here.

Experiments:
[1] = system: HBV (HepG2.117 cell line, inducibly HBV producing); assay: Anti-HBV activity: intracellular HBV DNA by real-time PCR in HepG2.117 cells after 3 days of treatment; type: cell-based, hepatitis B virus
In short: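 First, HBV replication is induced in HepG2.117 cells by doxycycline absence. Next, serially diluted compound is added for 3 days. Finally, intracellular HBV DNA is quantified by HBV-specific real-time PCR.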

in vitro = type: cell-based; conditions: human, HepG2 or HepG2.117 cells, ATPlite, mean value; for CC50 at 4 days: 4-days incubation (values marked with *)
In short: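 Luminescent ATP quantitation served as the viability endpoint following a 3- or 4-day incubation with test compounds.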

[2] = Hepatitis B virus, HepG2.117, 72 h, HepG2.117 cells, intracellular HBV DNA by real-time PCR, 3 days of treatment, mean value; read-out: EC50 (μM, mean value)
[3] = 3-days incubation (not marked with *)
[4] = Hepatitis B virus, HepG2.117, 72 h, HepG2.117 cells, 3 days of treatment, intracellular HBV DNA by real-time PCR; mean value; read-out: EC50 (μM, mean value)
[5] = 3-days incubation (unmarked values)

SMILES | EC50 [1, 2] [µM] | CC50 at 3 days (in vitro; [3]) [µM] | EC50 [1, 4] [µM] | CC50 at 3 days (in vitro; [5]) [µM] | CC50 at 4 days (in vitro) [µM]
CNC(=O)c1ccc(-n2c(NC(C)C)nc3c(c2=O)C[C@@H](C)N(C(=O)c2cccc(Cl)c2OC)C3)cc1 [Compound C504] | 1.01 | > 50 | – | – | –
CNC(=O)c1ccc(-n2c(NC(C)C)nc3c(c2=O)C[C@@H](C)N(C(=O)c2ccc(C#N)c(Cl)c2)C3)cc1 [Compound C508] | 0.88 | > 50 | – | – | –
CNC(=O)c1ccc(-n2c(N[C@H](C)CO)nc3c(c2=O)C[C@@H](C)N(C(=O)c2ccc(Cl)c(Cl)c2)C3)cc1 [Compound C330, 4-[(6R)-7-(3,4-dichlorobenzoyl)-2-{[(2R)-1-hydroxypropan-2-yl]amino}-6-methyl-4-oxo-5,6,7,8-tetrahydropyrido[3,4-d]pyrimidin-3(4H)-yl]-N-methylbenzamide] | – | – | 0.9 | > 50 | –
COc1cccc(CNc2nc3c(c(=O)n2-c2ccccc2OC)CCN(C(=O)c2ccc(Cl)c(Cl)c2)C3)c1 [Compound C18, 7-(3,4-dichlorobenzoyl)-3-(2-methoxyphenyl)-2-{[(3-methoxyphenyl)methyl]amino}-5,6,7,8-tetrahydropyrido[3,4-d]pyrimidin-4(3H)-one] | – | – | 3.27 | – | > 50
COc1ccc(CN(C)c2nc3c(c(=O)[nH]2)CCN(C(=O)c2ccc(Cl)c(Cl)c2)C3)cc1 [Compound C31, 7-(3,4-dichlorobenzoyl)-2-{[(4-methoxyphenyl)methyl](methyl)amino}-5,6,7,8-tetrahydropyrido[3,4-d]pyrimidin-4(3H)-one] | – | – | 2.63 | > 50 | –
CNC(=O)c1ccc(-n2c(N3CCC[C@@H]3C)nc3c(c2=O)C[C@@H](C)N(C(=O)c2ccc(Cl)c(Cl)c2)C3)cc1 [Compound C271, 4-[(6R)-7-(3,4-dichlorobenzoyl)-6-methyl-2-[(2S)-2-methylpyrrolidin-1-yl]-4-oxo-5,6,7,8-tetrahydropyrido[3,4-d]pyrimidin-3(4H)-yl]-N-methylbenzamide] | – | – | 0.27 | 24.9 | –
CNC(=O)c1cnc(-n2c(NC(C)C)nc3c(c2=O)C[C@@H](C)N(C(=O)c2ccc(Cl)c(Cl)c2)C3)cn1 [Compound C288, 5-[(6R)-7-(3,4-dichlorobenzoyl)-6-methyl-4-oxo-2-[(propan-2-yl)amino]-5,6,7,8-tetrahydropyrido[3,4-d]pyrimidin-3(4H)-yl]-N-methylpyrazine-2-carboxamide] | – | – | 0.07 | > 50 | –
CC(C)Nc1nc2c(c(=O)n1-c1ccc(S(C)(=O)=O)cc1)C[C@@H](c1ccc(F)cc1)N(C(=O)c1ccc(Cl)c(Cl)c1)C2 (single isomer, unassigned) [Compound C110A, (6*S)-7-(3,4-dichlorobenzoyl)-6-(4-fluorophenyl)-3-[4-(methanesulfonyl)phenyl]-2-[(propan-2-yl)amino]-5,6,7,8-tetrahydropyrido[3,4-d]pyrimidin-4(3H)-one] | – | – | > 50 | > 50 | –
O=C(c1ccc(Cl)c(Cl)c1)N1CCc2c(nc(NCc3ccccc3)[nH]c2=O)C1 [Compound C21, 2-(benzylamino)-7-(3,4-dichlorobenzoyl)-5,6,7,8-tetrahydropyrido[3,4-d]pyrimidin-4(3H)-one] | – | – | 7.51 | – | 24.7
CC(C)Nc1nc2c(c(=O)n1-c1ccc(-c3nccs3)cc1)C[C@@H](C)N(C(=O)c1ccc(Cl)c(Cl)c1)C2 [Compound C240, (6R)-7-(3,4-dichlorobenzoyl)-6-methyl-2-[(propan-2-yl)amino]-3-[4-(1,3-thiazol-2-yl)phenyl]-5,6,7,8-tetrahydropyrido[3,4-d]pyrimidin-4(3H)-one] | – | – | 0.13 | > 50 | –
CC(C)Nc1nc2c(c(=O)n1-c1ccc(S(C)(=O)=O)cc1)CCN(C(=O)c1ccc3scnc3c1)C2 [Compound C366] | – | – | > 10 | > 50 | –
CCc1cc(C(=O)NC)ccc1-n1c(NC(C)C)nc2c(c1=O)C[C@@H](C)N(C(=O)c1ccc(Cl)c(Cl)c1)C2 (single isomer, unassigned) [Compound C383a] | 0.32 | > 50 | – | – | –
COc1ccccc1-n1c(NC(C)C2CC2)nc2c(c1=O)CCN(C(=O)c1ccc(Cl)c(Cl)c1)C2 (centres unmarked) [Compound C47, 2-[(1-cyclopropylethyl)amino]-7-(3,4-dichlorobenzoyl)-3-(2-methoxyphenyl)-5,6,7,8-tetrahydropyrido[3,4-d]pyrimidin-4(3H)-one] | – | – | 2.68 | 27.3 | –
CCC(C)Nc1nc2c(c(=O)n1-c1ccccc1OC)CCN(C(=O)c1ccc(Cl)c(Cl)c1)C2 (centres unmarked) [Compound C49, 2-[(butan-2-yl)amino]-7-(3,4-dichlorobenzoyl)-3-(2-methoxyphenyl)-5,6,7,8-tetrahydropyrido[3,4-d]pyrimidin-4(3H)-one] | – | – | 2.41 | 26.8 | –
COc1ccc(CNc2nc3c(c(=O)n2-c2ccc(S(C)(=O)=O)cc2)C[C@@H](c2ccc(F)cc2)N(C(=O)c2ccc(Cl)c(Cl)c2)C3)cc1 (single isomer, unassigned) [Compound C109A, (6*S)-7-(3,4-dichlorobenzoyl)-6-(4-fluorophenyl)-3-[4-(methanesulfonyl)phenyl]-2-{[(4-methoxyphenyl)methyl]amino}-5,6,7,8-tetrahydropyrido[3,4-d]pyrimidin-4(3H)-one] | – | – | > 50 | > 50 | –
CNC(=O)c1ccc(-n2c(N[C@H](C)c3ccc(S(C)(=O)=O)cc3)nc3c(c2=O)C[C@@H](C)N(C(=O)c2ccc(Cl)c(Cl)c2)C3)cc1 (single isomer, unassigned) [Compound C412a] | 0.94 | > 50 | – | – | –
CNC(=O)c1ccc(-n2c(N(C)Cc3cnc4ccc(Cl)cn34)nc3c(c2=O)C[C@@H](C)N(C(=O)c2ccc(Cl)c(Cl)c2)C3)cc1 [Compound C562] | 2.87 | 26.8 | – | – | –
CNc1[nH]nc2cc(-n3c(NC(C)C)nc4c(c3=O)C[C@@H](C)N(C(=O)c3ccc(Cl)c(Cl)c3)C4)ccc12 [Compound C627] | 0.12 | 33.6 | – | – | –
CC(C)Nc1nc2c(c(=O)n1-c1ccc(S(C)(=O)=O)cc1)CCN(C(=O)c1ccc3ccoc3c1)C2 [Compound C139, 7-(1-benzofuran-6-carbonyl)-3-[4-(methanesulfonyl)phenyl]-2-[(propan-2-yl)amino]-5,6,7,8-tetrahydropyrido[3,4-d]pyrimidin-4(3H)-one] | – | – | 11.2 | > 50 | –
CNC(=O)c1ccc(-n2c(N3CCC3(C)C)nc3c(c2=O)C[C@@H](C)N(C(=O)c2ccc(Cl)c(Cl)c2)C3)cc1 [Compound C303, 4-[(6R)-7-(3,4-dichlorobenzoyl)-2-(2,2-dimethylazetidin-1-yl)-6-methyl-4-oxo-5,6,7,8-tetrahydropyrido[3,4-d]pyrimidin-3(4H)-yl]-N-methylbenzamide] | – | – | 0.07 | 26.7 | –
COc1ccccc1-n1c(NC2COC2)nc2c(c1=O)CCN(C(=O)c1ccc(Cl)c(Cl)c1)C2 [Compound C48, 7-(3,4-dichlorobenzoyl)-3-(2-methoxyphenyl)-2-[(oxetan-3-yl)amino]-5,6,7,8-tetrahydropyrido[3,4-d]pyrimidin-4(3H)-one] | – | – | 30.1 | > 50 | –
COc1ccccc1-n1c(N)nc2c(c1=O)CC(C)N(C(=O)c1ccc(Cl)c(Cl)c1)C2 (centres unmarked) [Compound C95, 2-amino-7-(3,4-dichlorobenzoyl)-3-(2-methoxyphenyl)-6-methyl-5,6,7,8-tetrahydropyrido[3,4-d]pyrimidin-4(3H)-one] | – | – | 1.02 | > 50 | –
CNC(=O)c1ccc(-n2c(N3CC4CC3(C)C4)nc3c(c2=O)C[C@@H](C)N(C(=O)c2ccc(Cl)c(Cl)c2)C3)cc1 [Compound C444] | 0.06 | 37.6 | – | – | –
CNC(=O)c1ccc(-n2c(N3CCC[C@@H]3c3ccccc3)nc3c(c2=O)C[C@@H](C)N(C(=O)c2ccc(Cl)c(Cl)c2)C3)cc1 (single isomer, unassigned) [Compound C401a] | 0.36 | 13.8 | – | – | –
CNC(=O)c1ccc(-n2c(NC(C)C)nc3c(c2=O)C[C@@H](C)N(C(=O)c2cc4cc(Cl)ccc4s2)C3)cc1 [Compound C579] | 0.12 | > 50 | – | – | –
CCOC(=O)c1ccc(-n2c(NC(CCO)C3CC3)nc3c(c2=O)C[C@@H](C)N(C(=O)c2ccc(Cl)c(Cl)c2)C3)cc1 (stereo partly drawn) [Compound C230, ethyl 4-[(6R)-2-[(1-cyclopropyl-3-hydroxypropyl)amino]-7-(3,4-dichlorobenzoyl)-6-methyl-4-oxo-5,6,7,8-tetrahydropyrido[3,4-d]pyrimidin-3(4H)-yl]benzoate] | – | – | 1.7 | > 50 | –
COc1ccccc1CNc1nc2c(c(=O)n1-c1ccccc1OC)CCN(C(=O)c1ccc(Cl)c(Cl)c1)C2 [Compound C17, 7-(3,4-dichlorobenzoyl)-3-(2-methoxyphenyl)-2-{[(2-methoxyphenyl)methyl]amino}-5,6,7,8-tetrahydropyrido[3,4-d]pyrimidin-4(3H)-one] | – | – | 0.97 | – | 28.9
C#C[C@H]1CCCN1c1nc2c(c(=O)n1-c1ccc(C(=O)NC)cc1)C[C@@H](C)N(C(=O)c1ccc(Cl)c(Cl)c1)C2 (single isomer, unassigned) [Compound C350, 4-[(6R)-7-(3,4-dichlorobenzoyl)-2-[(2*R)-2-ethynylpyrrolidin-1-yl]-6-methyl-4-oxo-5,6,7,8-tetrahydropyrido[3,4-d]pyrimidin-3(4H)-yl]-N-methylbenzamide] | – | – | 0.23 | > 50 | –
